For data set [1], the system named is Rattus norvegicus. Put plainly: Antiallergic activity in anti-Nippostrongylus brasiliensis homocytotropic antibody-injected Sprague-Dawley rat assessed as inhibition of passive cutaneous anaphylaxis reaction at 10 mg/kg, ip administered 15 mins prior to worm extract antigen challenge measured 45 mins following antigen challenge by Evans blue dye staining. As to conditions: route intraperitoneal; for inhibition in vivo at 10 mg/kg: Rattus norvegicus, Sprague-Dawley, ip. It counts as functional.

Data set [2] relates to Rattus norvegicus. Put plainly: Antiallergic activity in anti-Nippostrongylus brasiliensis homocytotropic antibody-injected Sprague-Dawley rat assessed as inhibition of passive cutaneous anaphylaxis reaction at 5 mg/kg, ip administered 15 mins prior to worm extract antigen challenge measured 45 mins following antigen challenge by Evans blue dye staining. It counts as functional. As to conditions: route intraperitoneal.

Data set [3] deals with Rattus norvegicus. Description: Antiallergic activity in anti-Nippostrongylus brasiliensis homocytotropic antibody-injected Sprague-Dawley rat assessed as inhibition of passive cutaneous anaphylaxis reaction at 25 mg/kg, po administered 8 mins prior to worm extract antigen challenge measured 45 mins following antigen challenge by Evans blue dye staining. In kind it is functional.

A short description of data set [4]: 1-Octanol-citrate buffer partition coefficient, log P of the compound at pH 4.0 by UV spectrometry. In kind it is physicochemical.

The term inhibition in vivo denotes the change of the read-out against control, counted positive when it falls. As usually defined, the logD is lipophilicity at a set pH, counting ionised and neutral species. High values mean a more lipophilic compound, low ones a more hydrophilic compound.

With `O=C(O)c1ccc2oc3ccc(OCCO)cc3c(=O)c2c1`, the inhibition in vivo at 10 mg/kg in the data set on Rattus norvegicus [1] is 100%. For the same compound, the inhibition in vivo at 5 mg/kg in the data set on Rattus norvegicus [2] amounted to 100%. Also, the inhibition in vivo at 25 mg/kg in the data set with Rattus norvegicus [3] is 100%.

For `O=C(O)c1ccc2oc3ccc(OCC(O)CSC4CCCCC4)cc3c(=O)c2c1` (stereo not given), in the data set on Rattus norvegicus [1], the inhibition in vivo at 10 mg/kg was determined as 39% and the “log(%)” value is recorded as 1.59. Also, the logD in data set [4] came to 2.95.

Turning to `COc1ccc(SCC(O)COc2ccc3oc4ccc(C(=O)O)cc4c(=O)c3c2)cc1` (stereo not given), the inhibition in vivo at 5 mg/kg with Rattus norvegicus [2] was 51%.

Regarding `O=C(O)c1ccc2oc3ccc(OCC(O)CSc4ccccc4)cc3c(=O)c2c1` (stereo not given), in the data set on Rattus norvegicus [1], the inhibition in vivo at 10 mg/kg was 100% and the “log(%)” value stood at 2. Moreover, in the data set with Rattus norvegicus [2], the inhibition in vivo at 5 mg/kg came to 88%. Also, in the data set with Rattus norvegicus [3], the inhibition in vivo at 25 mg/kg came to 22%. In addition, in data set [4], the logD was 3.8.

Turning to `O=C(O)c1ccc2oc3ccc(OCC(O)CSc4ccc(F)cc4)cc3c(=O)c2c1` (stereo not given), the inhibition in vivo at 5 mg/kg in the data set on Rattus norvegicus [2] stood at 38%.

Turning to `O=C(O)c1ccc2oc3ccc(OCC(O)C[S+]([O-])c4ccccc4)cc3c(=O)c2c1` (stereo not given), the inhibition in vivo at 5 mg/kg in the data set with Rattus norvegicus [2] amounted to 42%.

`O=C(O)c1cc(=O)c2c(OCC(O)COc3cccc4oc(C(=O)O)cc(=O)c34)cccc2o1` [CROMOLYN SODIUM]: the inhibition in vivo at 10 mg/kg in the data set with Rattus norvegicus [1] is 89%.

As to `O=C(O)c1ccc2oc3ccc(OCC(O)CSc4ccc(Cl)c(Cl)c4)cc3c(=O)c2c1` (stereo not given), the inhibition in vivo at 5 mg/kg with Rattus norvegicus [2] came out at 7%.

As to `O=C(O)c1ccc2oc3ccc(OCC(O)CSCCO)cc3c(=O)c2c1` (stereo not given), in the data set on Rattus norvegicus [1], the inhibition in vivo at 10 mg/kg stood at 100% and the “log(%)” value was found to be 2. Besides, the inhibition in vivo at 25 mg/kg in the data set with Rattus norvegicus [3] was 0%. For the same compound, in data set [4], the logD stood at 2.32.

In the case of `O=C(O)c1ccc2oc3ccc(OCC(O)COCCO)cc3c(=O)c2c1` (stereo not given), in the data set with Rattus norvegicus [1], the inhibition in vivo at 10 mg/kg was found to be 77% and the “log(%)” value amounted to 1.89. This compound gave a logD in data set [4] of 2.31.

Turning to `COCC(O)COc1ccc2oc3ccc(C(=O)O)cc3c(=O)c2c1` (stereo not given), in the data set on Rattus norvegicus [1], the inhibition in vivo at 10 mg/kg turned out to be 29% and the “log(%)” value stood at 1.46. The compound further registered a logD in data set [4] of 2.13.

As for `O=C(O)c1ccc2oc3ccc(OCC(O)COCC(F)(F)F)cc3c(=O)c2c1` (stereo not given), in the data set on Rattus norvegicus [1], the inhibition in vivo at 10 mg/kg was found to be 100% and the “log(%)” value is recorded as 2. Further, the inhibition in vivo at 25 mg/kg with Rattus norvegicus [3] is 0%. The logD in data set [4] was 3.14.

On to `O=C(O)c1ccc2oc3ccc(OCC(O)CO)cc3c(=O)c2c1` (stereo not given), for which, in the data set on Rattus norvegicus [1], the inhibition in vivo at 10 mg/kg turned out to be 78% and the “log(%)” value is given as 1.89. In addition, in the data set on Rattus norvegicus [3], the inhibition in vivo at 25 mg/kg is 19%. The same compound displayed a logD in data set [4] of 2.33.

Take `CCCCCCCSCC(O)COc1ccc2oc3ccc(C(=O)O)cc3c(=O)c2c1` (stereo not given): in the data set on Rattus norvegicus [1], the inhibition in vivo at 10 mg/kg amounted to 17% and the “log(%)” value is recorded as 1.23. In data set [4], this compound returned a logD of 2.81.

With `CC(C)(C)SCC(O)COc1ccc2oc3ccc(C(=O)O)cc3c(=O)c2c1` (stereo not given), in the data set with Rattus norvegicus [1], the inhibition in vivo at 10 mg/kg is 83% and the “log(%)” value is 1.92. In data set [4], the logD turned out to be 2.83.

As for `O=C(O)c1ccc2oc3ccc(OCC(O)CSC45CC6CC(CC(C6)C4)C5)cc3c(=O)c2c1` (stereo not given), in the data set on Rattus norvegicus [1], the inhibition in vivo at 10 mg/kg was found to be 16% and the “log(%)” value came to 1.2. Moreover, in data set [4], the logD was determined as 2.58.

Consider `CSCC(O)COc1ccc2oc3ccc(C(=O)O)cc3c(=O)c2c1` (stereo not given), for which, in the data set on Rattus norvegicus [1], the inhibition in vivo at 10 mg/kg stood at 71% and the “log(%)” value is reported as 1.85. In addition, the inhibition in vivo at 25 mg/kg with Rattus norvegicus [3] came to 48%. In addition, the logD in data set [4] was determined as 2.81.

Turning to `O=C(O)c1ccc2oc3ccc(OCC(O)CSc4ccc(Cl)cc4)cc3c(=O)c2c1` (stereo not given), in the data set with Rattus norvegicus [2], the inhibition in vivo at 5 mg/kg was 37%.

On to `CC(C)SCC(O)COc1ccc2oc3ccc(C(=O)O)cc3c(=O)c2c1` (stereo not given), for which, in the data set with Rattus norvegicus [1], the inhibition in vivo at 10 mg/kg stood at 38% and the “log(%)” value worked out at 1.54. In addition, in data set [4], the logD stood at 3.06.

With `C[S+]([O-])CC(O)COc1ccc2oc3ccc(C(=O)O)cc3c(=O)c2c1` (stereo not given), in the data set on Rattus norvegicus [1], the inhibition in vivo at 10 mg/kg was 100% and the “log(%)” value was found to be 2. The inhibition in vivo at 25 mg/kg with Rattus norvegicus [3] stood at 0%. For the same compound, the logD in data set [4] amounted to 1.36.

With `O=C(O)c1ccc2oc3ccc(OCC(O)CSc4ccc(Br)cc4)cc3c(=O)c2c1` (stereo not given), in the data set on Rattus norvegicus [2], the inhibition in vivo at 5 mg/kg worked out at 14%.

`COCCOCC(O)COc1ccc2oc3ccc(C(=O)O)cc3c(=O)c2c1` (stereo not given): in the data set with Rattus norvegicus [1], the inhibition in vivo at 10 mg/kg was determined as 99% and the “log(%)” value amounted to 2. Besides, in the data set with Rattus norvegicus [3], the inhibition in vivo at 25 mg/kg was 15%. Moreover, the logD in data set [4] is 2.08.

(Values after ChEMBL document CHEMBL3244293, “Antiallergic activity of some 9H-xanthen-9-one-2-carboxylic acids” (J Med Chem, 1978).)
